These results are taken from PubChem BioAssay (NCI).

Assay in all cases: NCI anticancer screen, dose series, 48 h
In assay [1] the test system is HT29 colon.
Assay [2] deals with IGROV1 ovarian.
For assay [3], the system named is MDA-MB-435.
Assay [4] concerns SR leukemia.
Assay [5] concerns LOX IMVI melanoma.
Assay [6] deals with HOP-62 NSCLC.
Assay [7] has as its system HS 578T breast.
For assay [8], the system named is UACC-62 melanoma.
For assay [9], the system named is SNB-19 CNS.
Assay [10] concerns CCRF-CEM leukemia.

Structures are written as SMILES.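 Cells were grown in 96-well plates and exposed to each compound for 48 hours at five concentrations; endpoints were interpolated linearly between bracketing concentrations, or set to the highest concentration if not reached. GI50 marks 50% less growth. The concentration for full growth arrest is given as TGI.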

On to `CC(=O)O[C@@H]1C(=O)N(c2ccccc2)[C@@H]1c1cc2ccccc2c2ccccc12`, for which the TGI in assay [1] was more than 100 µM; in [2], 61.9 µM; in [3] it was 48.1 µM; in assay [4], 52.9 µM; in [5], 64.3 µM; in assay [6], more than 100 µM. Moreover, the TGI in assay [7], in assay [8], in assay [9] and in assay [10] was more than 100 µM in each case.
As to `O=C(Nc1ccc(-n2cc(-c3ccncc3)c(-c3ccc(O)c(Cl)c3)n2)cc1)Nc1ccc(Cl)c(C(F)(F)F)c1`, the GI50 in [1] was 10.2 µM; in assay [2], 4.42 µM; in assay [3], 2.89 µM; in assay [4], 3.96 µM; in [5], 2.14 µM; in [6], 6.56 µM. Besides, the GI50 in [7] was 2.43 µM; in assay [8] it was 3.9 µM; in [9], 5.06 µM; in [10], 3.2 µM. The TGI in assay [1] is 25.2 µM; in [2], 30.3 µM; in assay [3], 15.3 µM; in [4], 21.6 µM; in assay [5] it was 18 µM; in assay [6] it was 27.6 µM. The TGI in assay [7] amounted to 13 µM; in assay [8] it was 14.8 µM; in assay [9] it was 19 µM; in assay [10], 22.3 µM.
In the case of `C#C/C=C\CCCCCCCCCCCCCC/C=C\CCCCC#CC(O)C#CCCCC/C=C\CCCCCC/C=C/C(O)C#C` (stereo not given), the TGI is more than 48.8 µM in assay [1]; 31 µM in assay [2]; 17.2 µM in [3]; more than 60.8 µM in assay [4]; 8.75 µM in [5]; more than 75 µM in assay [6]. In addition, the TGI in assay [7] is more than 75 µM; in assay [8], 36.8 µM; in assay [9] it was more than 75 µM; in [10], more than 47.5 µM.
In the case of `O=C(O)c1cc(=O)c2c(OCC(O)COc3cccc4oc(C(=O)O)cc(=O)c34)cccc2o1`, the TGI in [1] is more than 100 µM; in assay [2], more than 94.9 µM; in [3], more than 100 µM; in [4] it was more than 100 µM; in [5], more than 100 µM; in assay [6], more than 100 µM. Also, the TGI in assay [7], in assay [8], in assay [9] and in [10] was more than 100 µM in each case.
Consider `Cc1ccc([N+](=O)[O-])cc1S(=O)(=O)Nc1ccc(C2=NOC(c3cccs3)C2)cc1` (stereo not given), for which the TGI in assay [1] was 40.2 µM; in assay [2] it was 30 µM; in assay [3], 10.4 µM; in assay [4] it was 11.5 µM; in assay [5] it was 23.6 µM; in [6], 29.1 µM. Besides, the TGI in [7] was 83 µM; in assay [8], 17.8 µM; in [9], 53.1 µM; in assay [10], 50.2 µM.
Consider `CCOC(=O)CCSc1nc2ccc(I)cc2c(=O)n1Cc1ccccc1`, for which the TGI was more than 100 µM in [1]; more than 100 µM in [2]; more than 89 µM in [3]; 29.5 µM in assay [4]; more than 77.3 µM in assay [5]; more than 75.2 µM in [6]. Moreover, the TGI is more than 81.9 µM in [7], more than 93.5 µM in assay [8], more than 100 µM in assay [9] and 67.4 µM in [10].
